This note sets out measurements from PMC4859819 (Molecular Pharmacology, 2016).

What all share (experiment): two-electrode voltage clamp, Xenopus oocytes
What all share (assay type): cell-based

Test [1] has as its target T1, GluN1/GluN2B receptor (rat GluN1-1a, mouse GluN2B) (Rattus norvegicus; Mus musculus, UniProt P35439+Q01097, P35439:Y109C).
T1 construct: gene Grin1; full-length receptors from pcDNA3-based plasmids, Xenopus laevis oocytes, cDNA ratio 1:1; heterotetramer, usually two GluN1 and two GluN2
An excerpt: (§1) two-electrode voltage clamp, Xenopus oocytes on GluN1/GluN2B receptor (rat GluN1-1a, mouse GluN2B)

For test [2], the target named is T2, GluN1/GluN2B receptor (rat GluN1-1a, mouse GluN2B) (Rattus norvegicus; Mus musculus, UniProt P35439+Q01097, P35439:L135H).
T2 construct: gene Grin1; full-length receptors from pcDNA3-based plasmids, Xenopus laevis oocytes, cDNA ratio 1:1; heterotetramer, usually two GluN1 and two GluN2
Text: as §1

Test [3] deals with T3, GluN1/GluN2B receptor (rat GluN1-1a, mouse GluN2B) (Rattus norvegicus; Mus musculus, UniProt P35439+Q01097, Q01097:A135G).
T3 construct: gene Grin1; full-length receptors from pcDNA3-based plasmids, Xenopus laevis oocytes, cDNA ratio 1:1; heterotetramer, usually two GluN1 and two GluN2
T3 sequence (Q01097 27-1482 A135G, other chains not shown): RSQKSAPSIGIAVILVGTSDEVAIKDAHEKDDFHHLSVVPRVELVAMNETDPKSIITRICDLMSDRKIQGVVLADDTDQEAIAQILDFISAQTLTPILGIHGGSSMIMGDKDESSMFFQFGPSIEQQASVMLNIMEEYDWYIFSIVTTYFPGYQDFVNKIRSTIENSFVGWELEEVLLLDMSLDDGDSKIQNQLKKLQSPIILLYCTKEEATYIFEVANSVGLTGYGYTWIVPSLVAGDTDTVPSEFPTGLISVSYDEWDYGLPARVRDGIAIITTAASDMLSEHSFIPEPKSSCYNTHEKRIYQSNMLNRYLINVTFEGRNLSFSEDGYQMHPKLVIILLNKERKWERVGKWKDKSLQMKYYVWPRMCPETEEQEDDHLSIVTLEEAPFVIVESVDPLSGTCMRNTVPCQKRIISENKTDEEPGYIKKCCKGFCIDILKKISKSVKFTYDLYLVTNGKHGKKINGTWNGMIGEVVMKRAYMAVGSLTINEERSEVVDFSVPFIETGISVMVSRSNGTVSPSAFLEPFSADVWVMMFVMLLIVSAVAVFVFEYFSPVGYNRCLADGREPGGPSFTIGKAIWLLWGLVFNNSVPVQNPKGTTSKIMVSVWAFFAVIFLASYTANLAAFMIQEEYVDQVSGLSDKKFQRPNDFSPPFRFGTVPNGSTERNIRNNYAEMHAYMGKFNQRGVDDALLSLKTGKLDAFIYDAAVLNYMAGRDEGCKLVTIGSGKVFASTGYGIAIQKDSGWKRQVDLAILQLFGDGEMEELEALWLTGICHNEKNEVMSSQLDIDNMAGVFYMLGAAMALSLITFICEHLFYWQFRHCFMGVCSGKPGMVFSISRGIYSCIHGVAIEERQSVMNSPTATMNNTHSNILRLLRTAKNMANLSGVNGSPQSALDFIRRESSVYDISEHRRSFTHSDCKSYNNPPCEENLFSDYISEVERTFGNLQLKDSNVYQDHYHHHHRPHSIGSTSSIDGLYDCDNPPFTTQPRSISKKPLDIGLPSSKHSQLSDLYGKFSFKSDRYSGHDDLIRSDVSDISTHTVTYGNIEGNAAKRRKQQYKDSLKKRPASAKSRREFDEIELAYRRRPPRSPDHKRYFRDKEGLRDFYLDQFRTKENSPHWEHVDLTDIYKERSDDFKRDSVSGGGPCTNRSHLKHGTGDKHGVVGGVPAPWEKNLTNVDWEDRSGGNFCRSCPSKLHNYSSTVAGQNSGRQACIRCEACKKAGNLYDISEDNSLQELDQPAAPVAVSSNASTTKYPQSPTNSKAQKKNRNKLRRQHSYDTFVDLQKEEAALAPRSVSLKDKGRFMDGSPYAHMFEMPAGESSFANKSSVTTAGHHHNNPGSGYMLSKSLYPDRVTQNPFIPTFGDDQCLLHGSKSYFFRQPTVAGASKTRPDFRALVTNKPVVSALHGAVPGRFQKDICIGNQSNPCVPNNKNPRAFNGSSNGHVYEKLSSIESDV
Text: as §1

The target in test [4] is T4, GluN1/GluN2B receptor (rat GluN1-1a, mouse GluN2B) (Rattus norvegicus; Mus musculus, UniProt P35439+Q01097, Q01097:F176A).
T4 construct: gene Grin1; full-length receptors from pcDNA3-based plasmids, Xenopus laevis oocytes, cDNA ratio 1:1; heterotetramer, usually two GluN1 and two GluN2
Text: as §1

In test [5] the target is T5, GluN1/GluN2B receptor (rat GluN1-1a, mouse GluN2B) (Rattus norvegicus; Mus musculus, UniProt P35439+Q01097, P35439:Y109S).
T5 construct: gene Grin1; full-length receptors from pcDNA3-based plasmids, Xenopus laevis oocytes, cDNA ratio 1:1; heterotetramer, usually two GluN1 and two GluN2
Text: as §1

Test [6] deals with T6, GluN1/GluN2B receptor (rat GluN1-1a, mouse GluN2B) (Rattus norvegicus; Mus musculus, UniProt P35439+Q01097).
T6 construct: gene Grin1; full-length receptors from pcDNA3-based plasmids, Xenopus laevis oocytes, cDNA ratio 1:1; heterotetramer, usually two GluN1 and two GluN2
Text: as §1

For test [7], the target named is T7, GluN1/GluN2B receptor (rat GluN1-1a, mouse GluN2B) (Rattus norvegicus; Mus musculus, UniProt P35439+Q01097, Q01097:A135P).
T7 construct: gene Grin1; full-length receptors from pcDNA3-based plasmids, Xenopus laevis oocytes, cDNA ratio 1:1; heterotetramer, usually two GluN1 and two GluN2
T7 sequence (Q01097 27-1482 A135P, other chains not shown): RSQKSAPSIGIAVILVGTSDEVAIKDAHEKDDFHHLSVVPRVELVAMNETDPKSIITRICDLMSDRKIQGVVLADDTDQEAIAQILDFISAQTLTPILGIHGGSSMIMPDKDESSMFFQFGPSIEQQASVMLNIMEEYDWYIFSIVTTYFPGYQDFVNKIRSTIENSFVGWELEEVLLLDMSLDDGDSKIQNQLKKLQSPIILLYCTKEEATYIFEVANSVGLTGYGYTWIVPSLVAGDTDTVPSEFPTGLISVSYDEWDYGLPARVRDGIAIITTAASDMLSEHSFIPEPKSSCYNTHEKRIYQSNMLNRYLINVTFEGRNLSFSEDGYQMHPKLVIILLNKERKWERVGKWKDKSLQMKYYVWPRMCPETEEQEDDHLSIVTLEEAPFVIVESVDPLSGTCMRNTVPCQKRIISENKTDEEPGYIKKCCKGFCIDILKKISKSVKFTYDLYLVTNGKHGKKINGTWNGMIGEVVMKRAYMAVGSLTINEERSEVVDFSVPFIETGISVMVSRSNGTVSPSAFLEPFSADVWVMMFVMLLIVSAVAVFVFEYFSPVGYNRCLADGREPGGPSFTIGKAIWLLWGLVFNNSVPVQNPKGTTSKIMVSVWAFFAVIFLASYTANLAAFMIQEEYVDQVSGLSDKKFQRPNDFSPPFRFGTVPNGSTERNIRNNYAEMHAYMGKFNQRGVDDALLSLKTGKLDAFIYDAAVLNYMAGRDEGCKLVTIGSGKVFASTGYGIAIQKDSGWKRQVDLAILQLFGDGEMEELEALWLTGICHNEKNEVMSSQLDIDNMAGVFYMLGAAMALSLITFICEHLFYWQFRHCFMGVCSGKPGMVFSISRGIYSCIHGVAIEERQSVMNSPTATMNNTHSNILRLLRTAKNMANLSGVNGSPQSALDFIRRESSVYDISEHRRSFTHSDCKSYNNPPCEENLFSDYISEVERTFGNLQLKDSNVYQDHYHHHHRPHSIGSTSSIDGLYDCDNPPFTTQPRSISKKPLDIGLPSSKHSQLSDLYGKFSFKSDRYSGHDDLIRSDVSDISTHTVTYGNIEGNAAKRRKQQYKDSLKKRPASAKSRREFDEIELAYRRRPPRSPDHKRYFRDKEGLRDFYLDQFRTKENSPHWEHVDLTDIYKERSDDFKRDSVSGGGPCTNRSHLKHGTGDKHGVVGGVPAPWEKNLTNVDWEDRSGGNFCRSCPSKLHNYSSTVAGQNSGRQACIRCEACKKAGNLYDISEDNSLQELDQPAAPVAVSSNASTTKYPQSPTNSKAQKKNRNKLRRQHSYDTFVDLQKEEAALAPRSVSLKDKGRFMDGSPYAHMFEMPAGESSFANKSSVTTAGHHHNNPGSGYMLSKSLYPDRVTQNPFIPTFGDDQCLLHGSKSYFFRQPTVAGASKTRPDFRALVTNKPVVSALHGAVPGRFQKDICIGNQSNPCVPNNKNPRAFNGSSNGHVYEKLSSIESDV
Text: as §1

Test [8] addresses T8, GluN1/GluN2B receptor (rat GluN1-1a, mouse GluN2B) (Rattus norvegicus; Mus musculus, UniProt P35439+Q01097, Q01097:P177C).
T8 construct: gene Grin1; full-length receptors from pcDNA3-based plasmids, Xenopus laevis oocytes, cDNA ratio 1:1; heterotetramer, usually two GluN1 and two GluN2
Text: as §1

Test [9] concerns the target T9, GluN1/GluN2B receptor (rat GluN1-1a, mouse GluN2B) (Rattus norvegicus; Mus musculus, UniProt P35439+Q01097, P35439:L135W).
T9 construct: gene Grin1; full-length receptors from pcDNA3-based plasmids, Xenopus laevis oocytes, cDNA ratio 1:1; heterotetramer, usually two GluN1 and two GluN2
Text: as §1

The target of test [10] is T10, GluN1/GluN2B receptor (rat GluN1-1a, mouse GluN2B) (Rattus norvegicus; Mus musculus, UniProt P35439+Q01097, Q01097:Q110G).
T10 construct: gene Grin1; full-length receptors from pcDNA3-based plasmids, Xenopus laevis oocytes, cDNA ratio 1:1; heterotetramer, usually two GluN1 and two GluN2
Text: as §1

The target in test [11] is T11, GluN1/GluN2B receptor (rat GluN1-1a, mouse GluN2B) (Rattus norvegicus; Mus musculus, UniProt P35439+Q01097, Q01097:F114S).
T11 construct: gene Grin1; full-length receptors from pcDNA3-based plasmids, Xenopus laevis oocytes, cDNA ratio 1:1; heterotetramer, usually two GluN1 and two GluN2
Text: as §1

T8 sequence (Q01097 27-1482 P177C, other chains not shown): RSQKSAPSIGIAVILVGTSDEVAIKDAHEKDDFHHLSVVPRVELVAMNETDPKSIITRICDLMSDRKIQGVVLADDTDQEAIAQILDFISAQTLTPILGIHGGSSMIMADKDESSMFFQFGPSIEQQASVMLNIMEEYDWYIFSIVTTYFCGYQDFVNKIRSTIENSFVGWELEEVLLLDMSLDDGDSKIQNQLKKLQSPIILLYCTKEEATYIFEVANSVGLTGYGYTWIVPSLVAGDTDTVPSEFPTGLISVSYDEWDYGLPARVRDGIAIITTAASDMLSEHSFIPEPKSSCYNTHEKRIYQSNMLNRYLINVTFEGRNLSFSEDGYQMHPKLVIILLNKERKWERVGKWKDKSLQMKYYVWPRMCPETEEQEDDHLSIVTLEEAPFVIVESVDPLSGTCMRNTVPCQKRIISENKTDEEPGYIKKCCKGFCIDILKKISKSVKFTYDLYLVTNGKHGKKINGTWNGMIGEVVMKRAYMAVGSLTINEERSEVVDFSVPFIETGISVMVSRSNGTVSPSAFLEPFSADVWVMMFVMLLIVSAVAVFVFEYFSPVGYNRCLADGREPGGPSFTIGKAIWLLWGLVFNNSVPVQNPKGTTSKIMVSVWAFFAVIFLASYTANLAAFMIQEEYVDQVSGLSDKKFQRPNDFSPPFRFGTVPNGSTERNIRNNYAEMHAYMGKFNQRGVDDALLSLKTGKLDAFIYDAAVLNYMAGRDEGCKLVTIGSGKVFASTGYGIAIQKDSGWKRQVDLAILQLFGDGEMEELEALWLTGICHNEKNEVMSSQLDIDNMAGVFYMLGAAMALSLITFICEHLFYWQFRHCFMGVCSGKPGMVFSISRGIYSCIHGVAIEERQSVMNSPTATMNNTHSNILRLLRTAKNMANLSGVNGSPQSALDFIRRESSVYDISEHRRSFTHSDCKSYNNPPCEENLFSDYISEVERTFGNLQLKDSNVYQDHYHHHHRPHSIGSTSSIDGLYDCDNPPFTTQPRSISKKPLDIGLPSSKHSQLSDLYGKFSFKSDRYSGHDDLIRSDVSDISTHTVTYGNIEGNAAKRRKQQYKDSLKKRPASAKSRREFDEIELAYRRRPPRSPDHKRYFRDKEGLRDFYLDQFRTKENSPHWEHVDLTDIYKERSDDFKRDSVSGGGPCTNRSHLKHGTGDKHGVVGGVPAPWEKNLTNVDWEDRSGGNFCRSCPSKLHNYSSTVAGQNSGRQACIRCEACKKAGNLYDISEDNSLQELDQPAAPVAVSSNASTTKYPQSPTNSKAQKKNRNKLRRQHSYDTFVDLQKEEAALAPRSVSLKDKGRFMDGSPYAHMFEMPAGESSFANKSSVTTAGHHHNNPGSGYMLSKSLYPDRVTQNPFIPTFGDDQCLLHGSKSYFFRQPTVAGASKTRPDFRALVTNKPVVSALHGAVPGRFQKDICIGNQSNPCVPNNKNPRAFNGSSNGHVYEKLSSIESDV

For the compound `Cc1nccn1Cc1cc(-c2ccc(F)c(C(F)F)c2)cnn1` [compound 1, 5-(3-(difluoromethyl)-4-fluorophenyl)-3-((2-methyl-1H-imidazol-1-yl)methyl)pyridazine], the IC50 in [1] turned out to be 7300 ± 260 nM; in test [2] it was 71 ± 7 nM; in [3], 72 ± 7 nM; in [4] it was 11400 ± 1000 nM; in [5], 9620 ± 700 nM; in test [6] it was 12 ± 0.2 nM. Besides, the IC50 in [7] is 404 ± 15 nM; in test [8] it was 75 ± 12 nM; in test [9], 9 ± 1 nM; in test [10], 502 ± 14 nM; in test [11], 676 ± 10 nM.
